Experimental data from patent US4743606A, “3-[2-(3',5'-di-t-butyl-4'-hydroxyphenyl)ethenyl]pyridine having anti-inflammatory and anti-arthritic properties” (Boehringer Ingelheim Pharmaceuticals, Inc., priority 1986, dated 1988).
Where two headings read alike, the source gives them in different places.

How the values were obtained:
[1] = tested on: Polyarthritis (adjuvant-induced, heat-killed Mycobacterium butyricum) in male CD rats; test: Developing Adjuvant-Induced Polyarthritis in Rats; type: in vivo, rat; details: for % Inhibition: oral, once daily 14 days, non-injected hind paw volume
Method: This test is used to determine the ability of compounds to affect the immunological processes involved in the induction and development of arthritis.
(§1) Polyarthritis is induced in male CD rats (150-170 g) by injection of heat-killed Mycobacterium butyricum. Each animal is given 0.1 ml of a 0.5% (5 mg/ml) adjuvant suspension in light mineral oil injected subcutaneously into the plantar surface of the right hind foot. At least 6 rats are used in each test group. Animals are dosed orally with test compound immediately after adjuvant injection, and once daily for a total of 14 days. Foot volumes are measured 24 hours after the final dose by mercury displacement to the lateral malleolus. Mean displacement volumes and their standard errors are calculated for the non-injected hind paws. Untreated normal and arthritic control groups are used as comparison for test compound effect. Results are expressed as percent of control effect.
The experiments reported here are performed using the same procedures as described in Example 3, except that 4-[2-(3',5'-di-t-butyl-4'-hydroxyphenol)ethenyl]pyridine (prior art) is under assay rather than the compound of the invention.

[2] = tested on: established adjuvant-induced polyarthritis in rats; test: Established Adjuvant-Induced Polyarthritis in Rats; type: in vivo, rat
Method: as §1
This assay is used to determine the ability of compounds to affect an established chronic inflammatory condition.
Rats in which polyarthritis has become established are selected 14 days after receiving the adjuvant suspension. They are treated daily with oral doses of test compound for 14 days (days 14-27). […] 24 hours after the final dose.

[3] = tested on: carrageenan induced paw edema in male CD rats; test: Carrageenan Induced Paw Edema in Rats; type: in vivo, rat
Method: This test is used to determine the ability of a compound to affect non-immune acute inflammation. Edema is produced in the right hind paw of male CD rats (150±10 g) by the subplantar injection of carrageenan (0.1 ml of a 1 percent suspension in saline). Ten rats are used in each test group. Test compound or its vehicle is administered orally 1 hour prior to carrageenan injection. Paw volume is determined by calculating the amount of mercury displaced after immersing the paw to the level of the lateral malleolus. Foot volumes are measured just prior to test compound administration and again 3 hours after carrageenan injection and the difference designated as edema volume.

[4] = biological target: T1, 5-Lipoxygenase (Oryctolagus cuniculus, UniProt G1SNX0); test: Hydroxyacid Profile Assay of 5-Lipoxygenase Derived Arachidonic Acid Metabolites (5-HETE biosynthesis by glycogen-elicited PMNs); type: cell-based, rabbit
T1 construct: glycogen elicited rabbit PMNs; endogenous in cells; host or cells: glycogen-elicited rabbit polymorphonuclear leucocytes (PMNs)
T1 sequence (G1SNX0 1-674): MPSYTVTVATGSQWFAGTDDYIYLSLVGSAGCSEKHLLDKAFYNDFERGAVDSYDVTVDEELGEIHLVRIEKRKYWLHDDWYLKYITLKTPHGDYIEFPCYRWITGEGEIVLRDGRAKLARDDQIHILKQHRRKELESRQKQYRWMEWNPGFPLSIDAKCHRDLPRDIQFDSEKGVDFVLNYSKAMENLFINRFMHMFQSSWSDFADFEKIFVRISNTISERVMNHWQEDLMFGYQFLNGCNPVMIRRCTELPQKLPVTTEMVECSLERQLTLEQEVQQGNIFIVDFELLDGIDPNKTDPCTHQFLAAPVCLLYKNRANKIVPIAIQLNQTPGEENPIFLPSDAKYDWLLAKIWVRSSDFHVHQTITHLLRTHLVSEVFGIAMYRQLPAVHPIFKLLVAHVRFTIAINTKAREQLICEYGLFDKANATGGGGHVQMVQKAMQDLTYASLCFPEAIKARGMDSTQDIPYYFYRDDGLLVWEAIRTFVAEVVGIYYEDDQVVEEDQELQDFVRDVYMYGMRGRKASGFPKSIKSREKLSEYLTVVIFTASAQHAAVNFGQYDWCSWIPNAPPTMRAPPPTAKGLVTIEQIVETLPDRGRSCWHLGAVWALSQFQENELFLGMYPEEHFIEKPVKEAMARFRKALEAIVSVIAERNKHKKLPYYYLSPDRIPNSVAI
Method: Buffer A (8.70 g NaCl; 0.27 g KCl; 0.42 g Na2 HPO4; 0.76 g KH2 PO4; and 1.00 g dextrose per liter H2 O; pH 7.0) (0.325 ml) is introduced into each of a battery of screwtop culture tubes. Then, a compound (0.100 ml) to be assayed is dispensed into individual tubes. Dose-response curves are determined by triplicate measurements at each concentration. Control tubes receive Buffer A (0.100 ml) in lieu of compound. Next, glycogen elicited rabbit PMNs (2×10^7 cells/tube; 4×10^7 cells/ml (0.500 ml) are added to each tube. The tubes are vortexed and preincubated in a shaking 37° C. water bath for 15 minutes.
Thereafter, the tubes are removed from the water bath and Calcium Ionophore Solution (400 μg/ml A-23187; Sigma Chemical Co., St. Louis, MO) (0.025 ml), ^14 C-arachidonic acid (0.25 μCi in 0.025 ethanol; New England Nuclear Products, Boston, MA) (0.025 ml) and Ca^+2 solution (CaCl2.2H2 O); 105.8 mg/10 ml H2 O) (0.025 ml) are added in that order. The tubes are vortexed and returned to the water bath for 30 minutes. The reaction is then terminated by the addition of HCl (0.8N, 0.025 ml).
Extraction and concentration of ^14 C-labeled 5-HETE is performed as follows. First, a solution (5.01 ml) containing 2 parts ethyl acetate, 3 parts CH2 Cl2 and unlabeled arachidonic acid (0.01 ml) is added to each tube. The tubes are capped and briefly vortexed. The contents of each tube are poured into a polypropylene column fitted with a porous polyethylene disc and Whatman phase separation filter paper. The organic phase is collected by gravity filtration into a conical centrifuge tube, while the aqueous phase is retained in the column by the phase separation paper. Each culture tube is rinsed once with the EtOAc:CH2 Cl2 solution (no arachidonic acid) (0.1 ml) and the wash added to the column. The organic phase is concentrated (to 0.5 ml) using a Savant Speed Vac concentrator (Savant Instruments, Inc., Hicksville, NY).
After concentration of the organic phase, the tubes are vortexed and stored covered on ice. An aliquot (0.01 ml) is then removed for liquid scintillation counting in a Beckman LS7500 Liquid Scintillation Counter (Beckman Instruments Corp., Fullerton, CA). […] This volume is applied to a silica gel covered glass plate in a 10 mm streak. The remaining fluid in the tube is measured via syringe and noted.
The TLC plate is placed in a chromatography chamber containing the following solvent system: CHCl3 :MeOH:HOAc:H2 O(v/v; 90:9:1:0.65). The plate is then air dried and counter on a Berthold Linear TLC Analyzer (Berthold Instruments, Inc., Pittsburgh, PA) for 30 minutes per lane. The integrated area of the 5-HETE band for each compound is converted to percent of control and analyzed.

[5] = tested on: Human neutrophils (respiratory burst, H2O2 production); test: Effect of Test Compound on H2O2 Production by Neutrophils (PMNs); type: cell-based; details: for IC50: Homo sapiens, Neutrophil
Excerpt: During this process molecular oxygen is converted to superoxide anion, which in turn yields hydrogen peroxide, hydroxyl radical and products of myeloperoxidase action. These activated oxygen species contribute to the cells microbiocidal activity. However they have also been reported to contribute to the inflammatory process and tissue destruction in rheumatic diseases [J. Fantone and P. Ward, Amer. […] This assay measures the ability of a test compound to inhibit the respiratory burst process by its effect on hydrogen peroxide production.
Either 10 μL stock solution of test compound or 10 μL medium is added to the appropriate tubes, followed by 1 ml cells in each tube. The tubes are incubated at 37° C. for 15 minutes. To the PMA stimulated group 10 μL/tube 10^-5 M PMA is added. To the opsonized zymosan stimulated group 20 μL/tube 10 mg/ml opsonized zymosan is added. The tubes are mixed gently to disperse cells and stimulus (if any) and 100 μL is pipetted into each of four microtiter plates. The plates are covered and incubated 1 hour at 37° C. in CO2.
After the incubation period 10 μL 1N NaOH is added to each test well to develop the color. A blanking well is made up of 110 μl distilled water.
Mean OD values are calculated for each set of quadruplicate wells. Any artifactual change in absorbance due to a direct drug effect on the detection system is subtracted out from the ΔOD of the stimulated cells+drug tubes. The % inhibition of H2 O2 release by PMA or opsonized zymosan is calculated relative to the "O drug" control for each stimulus as follows: […]

[6] = tested on: reverse passive arthus reaction (paw swelling) in rats; test: Reverse Passive Arthus Reaction; type: in vivo, rat
Method: The reverse passive arthus reaction is initiated by the interaction of antigen and antibody resulting in the formation of a precipitating immune complex, followed by fixation of complement, accumulation of leukocytes, edema and hemorrhage. The immunopathology of rheumatoid arthritis involves many of the parameters found in this reaction.
Test groups (5 rats per group) are dosed orally with compounds one hour prior to the sub-plantar injection into the right hind paw of rabbit anti-ovalbumin antibody (50 μg/0.1 ml). Immediately afterwards, ovalbumin (Sigma, #5503) (5 mg/0.2 ml) is injected i.v. via the tail vein. The right hind paw volume is measured at hourly intervals, from one to four hours after the injection of the immune reactants.
The change in paw volume for each animal is calculated by subtracting the zero hour paw volume (before injection) from the paw volume at the time of measurement. The mean of these values is calculated for each group. Results are expressed as percent inhibition of paw swelling compared to untreated controls.

[7] = tested on: MMC-16 cells, LTC4 release (lipoxygenase pathway); test: Mouse Mastocytoma Cell Leukotriene Release; type: cell-based
Method: The MMC-16 cell line represents a convenient in vitro model for studying the lipoxygenase pathway and offers an effective screening method by which inhibitory test compounds can be identified.
Cultured MMC-16 cells are suspended in Ca^++ free phosphate buffer at a concentration of 10^7 cells/ml. The cell suspension is distributed into plastic culture tubes, 1 ml/tube. Duplicate tubes are used for each drug concentration tested, with drug solution (0.2 ml) added to each tube. An ionophore control consists of Ca^++ free buffer (0.2 ml) added to two tubes, and a blank (0.4 ml Ca^++ free buffer) added to two tubes. CaCl2 solution (0.1 ml) is added to the drug and ionophore control tubes, which are vortexed and incubated at 37° C. for 40 minutes. The tubes are then centrifuged at 1,000×g for 10 minutes, and the supernatants collected and added to 4 volumes of absolute ethanol. LTC4 content is then assayed for by either radioimmunoassay or high performance liquid chromatography.

[8] = in vivo; details: rat
Method: A 50% ulcerogenic response in the animals tested (UD50) at 200 mg/kg for 4 days is observable when the rats are examined 24 hours after the last dose.

## CC(C)(C)c1cc(C=Cc2ccncc2)cc(C(C)(C)C)c1O [4-[2-(3',5'-di-t-butyl-4'-hydroxyphenyl)ethenyl]pyridine, reference compound]
[1]; 50 mg/kg
  % Inhibition: 0%

## CC(C)(C)c1cc(C=Cc2cccnc2)cc(C(C)(C)C)c1O [Compound 1, 3-[2-(3,5-di-t-butyl-4-hydroxyphenyl)ethenyl]-pyridine]
[1]; 5 mg/kg
  % Inhibition: 56%
[1]; 50 mg/kg
  % Inhibition: 82%
[1]; in words
  activity in developing adjuvant arthritis screen in the rat: active
[2]; 5.0 mg/kg, oral, daily days 14-27
  % Inhibition: 60%
[2]; 10.0 mg/kg, oral, daily days 14-27
  % Inhibition: 74%
[2]; 20.0 mg/kg, oral, daily days 14-27
  % Inhibition: 79%
[2]; 40.0 mg/kg, oral, daily days 14-27
  % Inhibition: 82%
[2]; in words
  activity in established adjuvant arthritis screen in the rat: active
[2]; rat established adjuvant arthritis, oral, daily days 14-27
  ED50: 4 mg/kg
[3]; 100 mg/kg, oral, 1 hour prior to carrageenan, edema at 3 hours
  % Inhibition: 56%
[3]; in words
  activity in carrageenan paw edema screen: active
[4]
  IC50: 3 µM
[4]; 5 × 10^-5 M
  inhibition at 50 µM: 66%
[4]; 5 × 10^-6 M
  inhibition at 5 µM: 68%
[4]; 5 × 10^-7 M
  inhibition at 0.5 µM: 18%
[4]; 10^-5 M
  inhibition at 10 µM: 67%
[4]; 10^-6 M
  inhibition at 1 µM: 29%
[4]; in words
  inhibition of 5-lipoxygenase: inhibit
[5]; read-out: Opsonized Zymosan Stimulated Oxidative Burst IC50
  IC50: 14 µM
[5]; read-out: PMA Stimulated Oxidative Burst IC50
  IC50: 25 µM
[5]; in words
  release of pro-inflammatory oxygen metabolites from stimulated neutrophils: inhibited
[6]; 1 mg/kg oral, hour 1
  % Inhibition: 17%
[6]; 1 mg/kg oral, hour 2
  % Inhibition: 19%
[6]; 1 mg/kg oral, hour 3
  % Inhibition: 26%
[6]; 1 mg/kg oral, hour 4
  % Inhibition: 10%
[6]; 30 mg/kg oral, hour 1
  % Inhibition: 29%
[6]; 30 mg/kg oral, hour 2
  % Inhibition: 50%
[6]; 30 mg/kg oral, hour 3
  % Inhibition: 55%
[6]; 30 mg/kg oral, hour 4
  % Inhibition: 44%
[6]; 100 mg/kg oral, hour 1
  % Inhibition: 7%
[6]; 100 mg/kg oral, hour 2
  % Inhibition: 48%
[6]; 100 mg/kg oral, hour 3
  % Inhibition: 55%
[6]; 100 mg/kg oral, hour 4
  % Inhibition: 22%
[6]; in words
  activity in reverse passive arthus screen: active
[7]; 3 × 10^-5 M
  inhibition at 30 µM: 100%
[7]; 3 × 10^-6 M
  inhibition at 3 µM: 18%
[7]; 10^-5 M
  inhibition at 10 µM: 67%
[7]; 10^-6 M
  inhibition at 1 µM: 0%
[7]; LTC4 release, MMC-16 cells
  IC50: 7 µM
[8]
  TD50 at 24 h: 200 mg/kg
